Tests used:
[1] = system: male CD-1 mice; experiment: elevated plus maze test (EPM), mouse model of stress-induced anxiety; type: in vivo
Description: Formula III (also referred to as PND-001) as a representative compound out of the class of SASGRMs was tested in a mouse model of stress-induced anxiety, the elevated plus maze test (EPM) (Experiment 1). The EPM relies on the inherent conflict between a rodent's tendency to explore a novel environment on one hand, and the stress of such exploration, resulting in avoidance of the aversive properties of the brightly lit open arms. Compounds that reduce anxiety specifically increase the frequency of entries into the open arms and time spent in the open arms.
Four to five week-old male CD-1 mice were group-housed (6 or 7 mice per cage) and maintained in a room with controlled temperature (21-22° C.) and a reversed light-dark cycle (12 h/12 h; lights on: 17:30-05:30; lights off: 05:30-17:30) with food and water available ad libitum.
Formula III and the vehicle (5% Dimethyl Sulfoxide (DMSO) and 95% Polyethylene Glycol 400 (PEG400)) were s.c. administrated 24 hours and 6 hours prior the EPM trial.
Diazepam was p.o. administrated 60 min prior the EPM trial as a positive control.
Formula III was tested in doses of 10, 30 and 100 mg/kg. Diazepam was p.o administrated 60 min prior the EPM trial and tested in a dose of 1 mg/kg. (see Table 1).
The mice were randomly assigned to one of the different experimental groups. Each animal was identified by its group name, cage number, series (day) of experiment, and a number (from 1 to 12) written with permanent ink on its tail.
The apparatus was a PVC maze covered with Plexiglas and subdivided into four equal exploratory arms (21×8 cm), which are all interconnected by a small platform (8×8 cm). The apparatus was placed 59 cm above the floor. Two arms are opened and two others are closed with wall (high: 21 cm).
After compound administration, mouse was placed on the platform opposite a closed arm. The number of entries and the time spent in each arm were recorded during a 5 min period. The animal was considered as entered in an arm when it places its four paws in the arm.
Analysis of variance (ANOVA) was performed on the result data. Fisher's PLSD was used for pairwise comparisons and p value ≤0.05 were considered significant.
In the next experiment in the Elevated Plus Maze Test (Experiment 2; conducted as described under the same experimental procedures and analysis as described for Experiment 1), the efficacy of Formula III (also referred to as PND001) at lower doses was studied. […] Compounds or vehicle (5% Dimethyl Sulfoxide (DMSO) and 95% Polyethylene Glycol 400 (PEG400)) were administrated s.c. 24 hours and 6 hours prior the EPM trial (Table 3).
Formula III (PND 001) was tested in doses of 1, 3 and 10 mg/kg. Formula IV (PND 002) was tested in doses of 30 mg/kg. Diazepam was p.o administrated 60 min prior the EPM trial as positive control and tested in a dose of 1 mg/kg.
In a third experiment in the Elevated Plus Maze Test (Experiment 3), conducted as described under the same experimental procedures and analysis as described for Experiment 1, the effect of the dosing route and regimen was investigated. Formula III (also referred to as PND001) and the vehicle (5% Dimethyl Sulfoxide (DMSO) and 95% Polyethylene Glycol 400 (PEG400)) were administrated by gavage (p.o.). Diazepam was i.p. administrated 30 min prior the EPM trial as positive control.
PND 001 was tested in doses of 3 mg/kg which had the highest efficacy in Experiment 2, and administrated either twice at 6 h and 1 h before the EPM trial, or given only once at 1 h before the trial. Diazepam was i.p. administrated 30 min prior the EPM trial and tested in a dose of 1 mg/kg. (see Table 5).

[2] = system: corticosterone; conditions: mouse, in vivo, po, 30 mg/kg
[3] = system: MDCK cell monolayers; conditions: pH 7.4
Description: BBB penetration is assessed in vitro using confluent MDCK cell monolayers and dosing of 504 of test compounds on apical and basolateral side of the monolayer at pH 7.4 for 90 min. The apparent permeability in both directions, and the efflux ratio is determined after subjecting samples to LC-MS/MS analysis.

[4] = system: rat hepatocytes; conditions: in vitro, reported; cited from earlier work
[5] = reported, cited from earlier work
[6] = system: rat plasma proteins; conditions: reported; cited from earlier work
[7] = system: human plasma proteins; conditions: reported; cited from earlier work
[8] = Experiment 1, 1 mg/kg po 60 min
[9] = Experiment 2, 1 mg/kg po 60 min
[10] = Experiment 3, 1 mg/kg ip 30 min
[11] = Experiment 3, 1 mg/kg, 30 min, ip
[12] = Experiment 2, 30 mg/kg sc 24 h and 6 h
[13] = Experiment 2, 30 mg/kg, 24 + 6 h, sc

## CN1C(=O)CN=C(c2ccccc2)c2cc(Cl)ccc21 [Diazepam, reference compound]
[1]; [8]
  increase in number of entries to the open arms compared to vehicle treated mice: 233%
  increase in time spent in the open arms compared to vehicle treated mice: 327%
[1]; Experiment 1, 1 mg/kg, 1 h, po
  Number of entries in the open arm, Mean: 10.0 n
  Time spent in the open arm, Mean: 59.6 s
[1]; [9]
  increase in number of entries into the open arms compared to vehicle treated mice: 146%
  increase in time spent into the open arms compared to vehicle treated mice: 151%
[1]; Experiment 2, 1 mg/kg, 1 h, po
  Number of entries in the open arm, Mean: 14.0 n
  Time spent in the open arm, Mean: 84.6 s
[1]; [10]
  increase in number of entries into the open arms compared to vehicle treated mice: 400%
  increase in time spent into the open arms compared to vehicle treated mice: 270%
[1]; [11]
  Number of entries in the open arm, Mean: 23.2 n
  Time spent in the open arm, Mean: 116.9 s

## CC#C[C@]1(O)CCC2C3CCC4=CC(=O)CC[C@]4(Cc4ccc(C)cc4)C3=CC[C@@]21C (stereo partly drawn) [Formula I, (10R,13S,17S)-17-hydroxy-13-methyl-10-[(4-methylphenyl)methyl]-17-prop-1-ynyl-2,6,7,8,12,14,15,16-octahydro-1H-cyclopenta[a]phenanthrene-3-one]
[2]
  corticosterone increase: not found to be significantly increased
[3]
  BBB penetration potential: moderate to high
[4]
  half life in rat hepatocytes: less than 0.2 h
[5]; in vitro
  half life in rat liver microsomes: 19.8 min

## C[C@]12CCC3C(C[C@H]4OC[C@@]35CCC(=O)C=C45)C1CC[C@@H]2C(=O)CO (some centres unmarked) [Formula II]
[2]
  corticosterone increase: not found to be significantly increased
[3]
  BBB penetration potential: moderate to high

## CCCCCCNC(=O)[C@@]1(O)[C@H](C)CC2[C@@H]3CCC4=CC(=O)C=C[C@]4(C)[C@@]3(F)[C@@H](O)C[C@@]21C (some centres unmarked) [Formula IV]
[1]; [12]
  increase in number of entries into the open arms compared to vehicle treated mice: 77%
  increase in time spent into the open arms compared to vehicle treated mice: 90%
[1]; [13]
  Number of entries in the open arm, Mean: 10.1 n
  Time spent in the open arm, Mean: 64.1 s
[2]
  corticosterone increase: not found to be significantly increased
[3]
  BBB penetration potential: moderate to high
[5]
  conversion to unidentified metabolites in rat liver microsomes (time): ≤ 30 min

## C[C@]12C=CC(=O)C=C1CCC1C2OC[C@@]2(C)C1CC[C@]2(O)C(=O)CO (some centres unmarked) [Formula V]
[2]
  corticosterone increase: not found to be significantly increased
[3]
  BBB penetration potential: moderate to high

## CC#C[C@]1(O)CC[C@H]2[C@@H]3CCC4=CC(=O)CCC4=C3[C@@H](c3ccc(N(C)C)cc3)C[C@@]21C [mifepristone]
[6]
  plasma protein binding, rat serum: over 95%
[7]
  plasma protein binding, human serum: over 95%

Reference: patent US20220072009A1, “SHORT-ACTING SELECTIVE GLUCOCORTICOID RECEPTOR MODULATORS” (PANDA CONSULTING LLC, priority 2018, published 2022)
